Patent publication US8802700B2 (Vertex Pharmaceuticals Incorporated, priority 2010, dated 2014)

target: T1, ΔF508-CFTR (Homo sapiens, UniProt P13569, DEL508-508); assay: Membrane potential optical assay (FRET voltage-sensor dyes, VIPR), identification of potentiator compounds; type: cell-based; settings: Table 3; assay not given; read-out: % Activity (% Efficacy, relative efficacy)
T1 construct: expressed in transfected cells
Outline: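 NIH3T3 mouse fibroblasts stably expressing ΔF508-CFTR, cultured 24 h at 27 °C, were loaded with FRET voltage dyes CC2-DMPE and DiSBAC2(3). Double-addition format: first addition of Cl⁻-free (gluconate) medium with or without compound; membrane-potential change read as fluorescence on VIPR II.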

T1 sequence (P13569 with tags, fused parts or gaps DEL508-508): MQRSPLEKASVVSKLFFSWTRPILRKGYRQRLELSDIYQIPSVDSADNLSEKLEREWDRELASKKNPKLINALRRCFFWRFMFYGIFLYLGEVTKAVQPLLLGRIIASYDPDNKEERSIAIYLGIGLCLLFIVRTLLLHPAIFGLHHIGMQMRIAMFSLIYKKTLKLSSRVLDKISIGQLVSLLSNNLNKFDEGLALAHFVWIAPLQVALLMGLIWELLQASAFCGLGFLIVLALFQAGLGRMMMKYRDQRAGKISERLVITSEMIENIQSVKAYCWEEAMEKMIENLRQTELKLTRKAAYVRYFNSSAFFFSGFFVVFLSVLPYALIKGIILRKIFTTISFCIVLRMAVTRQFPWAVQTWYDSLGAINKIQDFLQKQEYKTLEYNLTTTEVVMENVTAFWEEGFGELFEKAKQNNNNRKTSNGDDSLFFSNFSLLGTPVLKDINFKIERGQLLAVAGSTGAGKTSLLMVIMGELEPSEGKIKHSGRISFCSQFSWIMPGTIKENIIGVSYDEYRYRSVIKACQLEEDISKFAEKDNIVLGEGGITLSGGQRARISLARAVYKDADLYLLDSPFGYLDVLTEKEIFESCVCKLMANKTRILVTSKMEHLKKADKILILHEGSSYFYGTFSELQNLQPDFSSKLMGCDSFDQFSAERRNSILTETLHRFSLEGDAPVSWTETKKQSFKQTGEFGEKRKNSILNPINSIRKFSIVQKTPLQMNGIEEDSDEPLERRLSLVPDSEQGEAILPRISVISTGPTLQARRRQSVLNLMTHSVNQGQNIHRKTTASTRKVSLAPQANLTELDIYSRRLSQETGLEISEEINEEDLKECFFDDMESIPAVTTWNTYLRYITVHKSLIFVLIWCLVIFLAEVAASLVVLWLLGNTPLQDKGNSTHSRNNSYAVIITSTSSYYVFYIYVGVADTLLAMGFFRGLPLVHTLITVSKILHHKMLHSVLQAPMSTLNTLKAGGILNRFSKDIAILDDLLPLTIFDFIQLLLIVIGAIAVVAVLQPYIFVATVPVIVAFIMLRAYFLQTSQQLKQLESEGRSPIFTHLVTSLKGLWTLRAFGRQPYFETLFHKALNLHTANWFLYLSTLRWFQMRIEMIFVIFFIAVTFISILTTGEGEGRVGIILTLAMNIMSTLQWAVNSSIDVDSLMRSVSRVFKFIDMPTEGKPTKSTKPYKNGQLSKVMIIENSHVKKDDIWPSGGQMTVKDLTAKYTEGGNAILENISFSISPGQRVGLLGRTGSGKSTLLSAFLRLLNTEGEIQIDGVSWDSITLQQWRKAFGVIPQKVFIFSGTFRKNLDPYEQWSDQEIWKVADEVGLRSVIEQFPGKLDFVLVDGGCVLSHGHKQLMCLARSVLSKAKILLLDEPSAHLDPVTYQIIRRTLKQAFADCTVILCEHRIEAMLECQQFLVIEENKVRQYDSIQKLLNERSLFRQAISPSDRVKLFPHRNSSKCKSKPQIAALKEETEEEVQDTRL

Which Emax does the source give for O=C(Nc1ccc(C(O)(C(F)(F)F)C(F)(F)F)cc1)c1c[nH]c2ccccc2c1=O [Compound 150, 4-oxo-N-[4-[2,2,2-trifluoro-1-hydroxy-1-(trifluoromethyl)ethyl]phenyl]-1H-quinoline-3-carboxamide] here?
Its Emax is 25 to 100%.

For Cc1csc(-c2ccccc2NC(=O)c2c[nH]c3ccccc3c2=O)c1 [Compound 151, N-[2-(4-methyl-2-thienyl)phenyl]-4-oxo-1H-quinoline-3-carboxamide], which Emax is on record?
Its Emax is 25 to 100%.

With O=C(Nc1ccc2[nH]c(=O)oc2c1)c1c[nH]c2ccccc2c1=O [Compound 152, 4-oxo-N-(2-oxo-3H-benzooxazol-6-yl)-1H-quinoline-3-carboxamide] as the compound, how does the Emax read?
The Emax was under 25%.

How did the Emax turn out when CCC(CC)(c1cc(F)c(NC(=O)c2cnc3ccccc3c2O)cc1O)C(C)(C)C [Compound 153, N-[4-(1,1-diethyl-2,2-dimethyl-propyl)-2-fluoro-5-hydroxy-phenyl]-4-hydroxy-quinoline-3-carboxamide] was run?
Its Emax is 25 to 100%.

How did the Emax turn out when O=C(Nc1cc(C(F)(F)F)cc(C(F)(F)F)c1)c1c[nH]c2ccccc2c1=O [Compound 154, N-[3,5-bis(trifluoromethyl)phenyl]-4-oxo-1H-quinoline-3-carboxamide] was run?
The Emax was under 25%.

Which Emax does the source give for O=C(Nc1ccccn1)c1c[nH]c2ccccc2c1=O [Compound 155, 4-oxo-N-(2-pyridyl)-1H-quinoline-3-carboxamide] here?
The Emax was under 25%.

For O=C(Nc1ccccc1-c1ccccc1OC(F)(F)F)c1c[nH]c2ccccc2c1=O [Compound 156, 4-oxo-N-[2-[2-(trifluoromethoxy)phenyl]phenyl]-1H-quinoline-3-carboxamide], which Emax is on record?
The Emax was 25 to 100%.

Which Emax does the source give for CCc1ccc(NC)cc1NC(=O)c1c[nH]c2ccccc2c1=O [Compound 157, N-(2-ethyl-5-methylamino-phenyl)-4-oxo-1H-quinoline-3-carboxamide] here?
The Emax was 25 to 100%.

How did the Emax turn out when O=C(Nc1cc2[nH]ccc2cc1-c1ccccc1)c1c[nH]c2ccccc2c1=O [Compound 158, 4-Oxo-N-(5-phenyl-1H-indol-6-yl)-1H-quinoline-3-carboxamide] was run?
The Emax was 25 to 100%.

How did the Emax turn out when COC(=O)NC1CCCc2ccc(NC(=O)c3c[nH]c4ccccc4c3=O)cc21 (stereo not shown) [Compound 159, [7-[(4-Oxo-1H-quinolin-3-yl)carbonylamino]tetralin-1-yl]aminoformic acid methyl ester] was run?
Its Emax is 25 to 100%.

How did the Emax turn out when CCCc1ccc(NC(=O)c2c[nH]c3ccccc3c2=O)cc1N [Compound 160, N-(3-amino-4-propyl-phenyl)-4-oxo-1H-quinoline-3-carboxamide] was run?
Its Emax is 25 to 100%.

How did the Emax turn out when CCOCCOc1cc(NC(=O)c2c[nH]c3ccccc3c2=O)ccc1C(C)(C)C [Compound 161, N-[3-(2-ethoxyethoxy)-4-tert-butyl-phenyl]-4-oxo-1H-quinoline-3-carboxamide] was run?
The Emax was 25 to 100%.

With COc1ccc(NC(=O)c2c[nH]c3ccccc3c2=O)cn1 [Compound 162, N-(6-methoxy-3-pyridyl)-4-oxo-1H-quinoline-3-carboxamide] as the compound, how does the Emax read?
Its Emax is under 25%.

CCOc1ccccc1-c1ccc(CN)cc1NC(=O)c1c[nH]c2ccccc2c1=O [Compound 163, 4-Oxo-1,4-dihydro-quinoline-3-carboxylic acid (4-aminomethyl-2′-ethoxy-biphenyl-2-yl)-amide] was tested. Which Emax did it give?
Its Emax is 25 to 100%.

For O=C(Nc1cccc(C(F)(F)F)c1)c1c[nH]c2ccccc2c1=O [Compound 164, 4-oxo-N-[3-(trifluoromethyl)phenyl]-1H-quinoline-3-carboxamide], which Emax is on record?
Its Emax is 25 to 100%.

With NS(=O)(=O)c1ccc(NC(=O)c2c[nH]c3ccccc3c2=O)cc1 [Compound 165, 4-oxo-N-(4-sulfamoylphenyl)-1H-quinoline-3-carboxamide] as the compound, how does the Emax read?
Its Emax is under 25%.

With COC(=O)c1ccc(-c2ccccc2NC(=O)c2c[nH]c3ccccc3c2=O)cc1 [Compound 166, 4-[2-[(4-oxo-1H-quinolin-3-yl)carbonylamino]phenyl]benzoic acid methyl ester] as the compound, how does the Emax read?
Its Emax is 25 to 100%.

For Cc1ccc(NC(=O)c2c[nH]c3ccccc3c2=O)cc1N [Compound 167, N-(3-amino-4-methyl-phenyl)-4-oxo-1H-quinoline-3-carboxamide], which Emax is on record?
Its Emax is 25 to 100%.

How did the Emax turn out when O=C(Nc1cccnc1)c1c[nH]c2ccccc2c1=O [Compound 168, 4-oxo-N-(3-pyridyl)-1H-quinoline-3-carboxamide] was run?
The Emax was under 25%.

With Cn1ccc2ccc(NC(=O)c3c[nH]c4ccccc4c3=O)cc21 [Compound 169, N-(1-methyl-1H-indol-6-yl)-4-oxo-1H-quinoline-3-carboxamide] as the compound, how does the Emax read?
The Emax was 25 to 100%.

How did the Emax turn out when O=C(Nc1ccc(Cl)cn1)c1c[nH]c2ccccc2c1=O [Compound 170, N-(5-chloro-2-pyridyl)-4-oxo-1H-quinoline-3-carboxamide] was run?
The Emax was under 25%.

With O=C(Nc1ccccc1-c1cccc(Cl)c1Cl)c1c[nH]c2ccccc2c1=O [Compound 171, N-[2-(2,3-dichlorophenyl)phenyl]-4-oxo-1H-quinoline-3-carboxamide] as the compound, how does the Emax read?
Its Emax is 25 to 100%.

O=C(Nc1ccccc1-c1cc2ccccc2s1)c1c[nH]c2ccccc2c1=O [Compound 172, N-(2-(benzo[b]thiophen-2-yl)phenyl)-1,4-dihydro-4-oxoquinoline-3-carboxamide] was tested. Which Emax did it give?
The Emax was 25 to 100%.

With Cc1cccc(NC(=O)c2c[nH]c3ccccc3c2=O)n1 [Compound 173, N-(6-methyl-2-pyridyl)-4-oxo-1H-quinoline-3-carboxamide] as the compound, how does the Emax read?
The Emax was under 25%.

CC(=O)c1ccc(-c2ccccc2NC(=O)c2c[nH]c3ccccc3c2=O)s1 [Compound 174, N-[2-(5-acetyl-2-thienyl)phenyl]-4-oxo-1H-quinoline-3-carboxamide] was tested. Which Emax did it give?
Its Emax is 25 to 100%.

For CC(=O)N1CC2(CC2)c2ccc(NC(=O)c3c[nH]c4ccccc4c3=O)cc21 [Compound 175, 4-Oxo-1,4-dihydro-quinoline-3-carboxylic acid N-(1′-Acetyl-1′,2′-dihydrospiro[cyclopropane-1,3′-3H-indol]-6′-yl)-amide], which Emax is on record?
Its Emax is 25 to 100%.

With O=C(Nc1ccc(OC(F)(F)F)cc1)c1c[nH]c2ccccc2c1=O [Compound 176, 4-oxo-N-[4-(trifluoromethoxy)phenyl]-1H-quinoline-3-carboxamide] as the compound, how does the Emax read?
The Emax was 25 to 100%.

CCCCOc1ccccc1NC(=O)c1c[nH]c2ccccc2c1=O [Compound 177, N-(2-butoxyphenyl)-4-oxo-1H-quinoline-3-carboxamide] was tested. Which Emax did it give?
The Emax was over 100%.

For CC(C)(C)c1ccccc1Oc1ccccc1NC(=O)c1c[nH]c2ccccc2c1=O [Compound 178, 4-oxo-N-[2-(2-tert-butylphenoxy)phenyl]-1H-quinoline-3-carboxamide], which Emax is on record?
Its Emax is 25 to 100%.

Which Emax does the source give for NC(=O)c1cccc(NC(=O)c2c[nH]c3ccccc3c2=O)c1 [Compound 179, N-(3-carbamoylphenyl)-4-oxo-1H-quinoline-3-carboxamide] here?
The Emax was under 25%.

CCc1cccc(C)c1NC(=O)c1c[nH]c2ccccc2c1=O [Compound 180, N-(2-ethyl-6-methyl-phenyl)-4-oxo-1H-quinoline-3-carboxamide] was tested. Which Emax did it give?
Its Emax is 25 to 100%.

For Cc1ccc(-c2ccccc2NC(=O)c2c[nH]c3ccccc3c2=O)cc1 [Compound 181, 4-oxo-N-[2-(p-tolyl)phenyl]-1H-quinoline-3-carboxamide], which Emax is on record?
The Emax was 25 to 100%.

O=C(Nc1ccccc1-c1ccc(F)cc1)c1c[nH]c2ccccc2c1=O [Compound 182, N-[2-(4-fluorophenyl)phenyl]-4-oxo-1H-quinoline-3-carboxamide] was tested. Which Emax did it give?
The Emax was 25 to 100%.

Which Emax does the source give for CC(C)(C)OC(=O)N1CCCc2ccc(NC(=O)c3c[nH]c4ccccc4c3=O)cc21 [Compound 183, 7-[(4-oxo-1H-quinolin-3-yl)carbonylamino]-1,2,3,4-tetrahydroquinoline-1-carboxylic acid tert-butyl ester] here?
Its Emax is 25 to 100%.

O=C(Nc1ccc2cc[nH]c2c1)c1c(C(F)(F)F)[nH]c2ccccc2c1=O [Compound 184, N-(1H-indol-6-yl)-4-oxo-2-(trifluoromethyl)-1H-quinoline-3-carboxamide] was tested. Which Emax did it give?
The Emax was under 25%.

Which Emax does the source give for O=C(Nc1cccc(S(=O)(=O)N2CCOCC2)c1)c1c[nH]c2ccccc2c1=O [Compound 185, N-(3-morpholinosulfonylphenyl)-4-oxo-1H-quinoline-3-carboxamide] here?
Its Emax is under 25%.

Which Emax does the source give for O=C(Nc1ccc2c(C3CCCC3)c[nH]c2c1)c1c[nH]c2ccccc2c1=O [Compound 186, N-(3-cyclopentyl-1H-indol-6-yl)-4-oxo-1H-quinoline-3-carboxamide] here?
The Emax was 25 to 100%.

CC(=O)n1ccc2ccc(NC(=O)c3c[nH]c4ccccc4c3=O)cc21 [Compound 187, N-(1-acetyl-1H-indol-6-yl)-4-oxo-1H-quinoline-3-carboxamide] was tested. Which Emax did it give?
The Emax was 25 to 100%.

How did the Emax turn out when CCOC(=O)c1cc2cc[nH]c2cc1NC(=O)c1c[nH]c2ccccc2c1=O [Compound 188, 6-[(4-oxo-1H-quinolin-3-yl)carbonylamino]-1H-indole-5-carboxylic acid ethyl ester] was run?
Its Emax is 25 to 100%.

With O=C(Nc1ccc(OCc2ccccc2)cc1)c1c[nH]c2ccccc2c1=O [Compound 189, N-(4-benzyloxyphenyl)-4-oxo-1H-quinoline-3-carboxamide] as the compound, how does the Emax read?
Its Emax is 25 to 100%.

For O=C(Nc1ccccc1-c1ccc(F)c(Cl)c1)c1c[nH]c2ccccc2c1=O [Compound 190, N-[2-(3-chloro-4-fluoro-phenyl)phenyl]-4-oxo-1H-quinoline-3-carboxamide], which Emax is on record?
The Emax was 25 to 100%.

With O=C(Nc1cccc2ncccc12)c1c[nH]c2ccccc2c1=O [Compound 191, 4-oxo-N-(5-quinolyl)-1H-quinoline-3-carboxamide] as the compound, how does the Emax read?
Its Emax is under 25%.

For Cc1cccnc1NC(=O)c1c[nH]c2ccccc2c1=O [Compound 192, N-(3-methyl-2-pyridyl)-4-oxo-1H-quinoline-3-carboxamide], which Emax is on record?
The Emax was under 25%.

Which Emax does the source give for COc1ccc(NC(=O)c2c[nH]c3ccccc3c2=O)c(OC)n1 [Compound 193, N-(2,6-dimethoxy-3-pyridyl)-4-oxo-1H-quinoline-3-carboxamide] here?
The Emax was 25 to 100%.

How did the Emax turn out when N#Cc1ccc(NC(=O)c2c[nH]c3ccccc3c2=O)cc1 [Compound 194, N-(4-cyanophenyl)-4-oxo-1H-quinoline-3-carboxamide] was run?
Its Emax is under 25%.

Which Emax does the source give for Cc1ccc(NC(=O)c2c[nH]c3ccccc3c2=O)nc1 [Compound 195, N-(5-methyl-2-pyridyl)-4-oxo-1H-quinoline-3-carboxamide] here?
Its Emax is under 25%.
